According to PubChem BioAssay AID449750 (Broad Institute, 2010):
Values joined by “and” are separate entries in the source; they are usually repeats but may differ in a detail not shown here. Identical values can stand only once. Active and inactive are the calls of the source. No rule for the calls is given here.

Experiment: non-covalent RecA intein splicing inhibitors, dose response, biochemical, cell-free, fluorescence, secondary screen (AID 449750)

Row | SMILES | AC50
1 | CCN(CC)CCNC(=O)c1ccc2c(c1NCCO)C(=O)c1ccccc1C2=O | 13.1 µM
2 | CN(C)CCSc1nnc2[nH]c3ccccc3c2n1 | > 38 µM (inactive)
3 | CCCSc1nnc(Sc2nnnn2-c2ccccc2)s1 | 14.2 µM
4 | Cn1nc(C(C)(C)C)cc1C(=O)Sc1cccc(Br)c1 | > 38 µM (inactive)
5 | Cc1cc(C(=O)c2ccc(Cl)cc2)c(NC(=O)CCl)s1 | 1.19 µM
6 | Cc1cc[n+](C2=C([O-])c3ccccc3C(=O)/C2=N\S(=O)(=O)c2cccs2)cc1C | 4.29 µM
7 | O=C1C(Cl)=C(Nc2ccc(O)cc2)C(=O)c2ccccc21 | 2.7 µM
8 | CC(=O)N(Cc1ccc(F)cc1)C1=C(NCCc2ccccc2)C(=O)c2ccccc2C1=O | 7.58 µM
9 | Fc1ccc(Sc2nc(-c3ccccc3)nnc2C(F)(F)F)cc1 | > 38 µM (inactive)
10 | O=C(CCl)N1CCCC1c1ccc2c(c1)OCCO2 (configuration not stated) | 4.86 µM
11 | Cc1onc(-c2ccccc2)c1-c1nc2ccccc2c(=O)o1 | > 38 µM (inactive)
12 | Cn1nc(-c2ccc(Cl)cc2)nc2c(=O)n(C)c(=O)nc1-2 | 0.0579 µM
13 | CS(=O)(=O)c1nc([N+](=O)[O-])nn1CCCc1ccccc1 | 10.7 µM
14 | Cc1[nH]n(-c2ccccc2)c(=O)c1/C=N\NC(=O)C1COc2ccccc2O1 (configuration not stated) | 8.94 µM
15 | CCOC(=O)c1c(C)sc2c1N(C(=O)CCl)c1cc(Cl)ccc1S2 | 3.37 µM
16 | O=C1NC(c2ccc(-c3ccccc3[N+](=O)[O-])o2)C(C(=O)c2ccc(F)cc2)C(O)(C(F)(F)F)N1 (configuration not stated) | 34.4 µM
17 | CCOc1cc(C(c2c(C)[nH][nH]c2=O)c2c(C)[nH][nH]c2=O)cc(Br)c1OC | 15.8 µM
18 | O=C(CCl)Oc1ccc2occ(C(=O)c3cccs3)c2c1 | > 38 µM (inactive)
19 | COc1cccc(NC2=C(Cl)C(=O)OC2OC(=O)c2ccco2)c1 (configuration not stated) | > 38 µM (inactive)
20 | CCOC(=O)C1=C(c2ccccc2)NC(N)=NC1c1ccc(OCc2ccc(C(=O)OC)cc2)cc1 (configuration not stated) | 9.55 µM
21 | COc1cc(C(c2c(C)[nH][nH]c2=O)c2c(C)[nH][nH]c2=O)cc(Cl)c1O | 2.2 µM
22 | C=CCOC(=O)C1=C(C)NC(=O)NC1c1ccc(OC(=O)c2ccco2)c(OC)c1 (configuration not stated) | > 38 µM (inactive)

Row | SMILES | AC50
23 | CCOc1c(Br)cc(/C=C2\C(=O)N(CCC#N)N=C2C)cc1OC | 11.1 µM
24 | CCOC(=O)C1CCN(C(=O)c2c(C)oc3c2C(=O)c2ccccc2C3=O)CC1 | 21 µM
25 | Cc1ccc(C(=O)C2C(c3ccc(-c4ccccc4[N+](=O)[O-])o3)NC(=O)NC2(O)C(F)(F)F)cc1 (configuration not stated) | 19.9 µM
26 | C=CCN1C(=O)NC(c2ccc(OC)cc2)(C(F)(F)F)S/C1=C(\C#N)c1nnc(N2CCOCC2)n1-c1ccccc1 (configuration not stated) | 32.4 µM
27 | CCN(CC)CCOc1ccc(/C(=C(/Cl)c2ccccc2)c2ccccc2)cc1 | 9.31 µM
28 | O=C(CCl)N1CCN(S(=O)(=O)c2ccc3ccccc3c2)CC1 | 6.51 µM
29 | CC1=NN(c2ccccc2)C(=O)/C1=C\c1cn(C)c2ccccc12 | > 38 µM (inactive)
30 | COc1cccc(C(c2c(C)[nH]n(-c3ccccc3)c2=O)c2c(C)[nH]n(-c3ccccc3)c2=O)c1O | 2.35 µM
31 | COc1ccc(S(=O)(=O)Nc2cc(SCC(=O)O)c(O)c3ccccc23)cc1 | 2.14 µM
32 | Cc1cccc(NC(=S)N/N=C2/CCCCc3ccccc32)c1 | > 38 µM (inactive)
33 | CCCCCCCCCCOC(=O)Cn1c(COc2ccc(C)cc2)[n+](C)c2ccccc21 | 8.88 µM
34 | O=C(O)c1ccc(S(=O)(=O)/N=C2\C=C(Nc3ccccc3F)C(=O)c3ccccc32)cc1 | 0.229 µM
35 | CC(C)(C)c1ccc(C(=O)Cn2cnnc2C#N)cc1 | > 38 µM (inactive)
36 | O=C(CCl)N(Cc1ccccc1)c1ccccc1 | 4.16 µM
37 | O=Nc1c(O)c2ccccc2c2ccccc12 | 2.68 µM
38 | CCc1ccc(Nc2n[n+](-c3ccccc3)c(-c3c(Cl)cccc3Cl)s2)cc1 | 8.26 µM
39 | CCOc1ccc(N2C(=O)/C(=C\c3ccc(OC)c(O)c3)S(=O)(=O)C2c2cccc([N+](=O)[O-])c2)cc1 (configuration not stated) | > 38 µM (inactive)
40 | Cc1ccccc1C(CC(=O)c1cccs1)C(C#N)C#N (configuration not stated) | 6.53 µM
41 | Cc1[nH]n(-c2ccccc2)c(=O)c1C(c1ccc([N+](=O)[O-])cc1)c1c(C)[nH]n(-c2ccccc2)c1=O | 3.88 µM
42 | CCOC(=O)c1c(C)oc2c1c1c(c3ccccc32)OCN(CCCC(=O)O)C1 | 4.93 µM
43 | CN1CCN(C(c2ccc(Cl)cc2)c2cc(Cl)c3cccnc3c2O)CC1 (configuration not stated) | 24.8 µM
44 | Cc1[nH][nH]c(=O)c1C(c1ccc(Cl)cc1)c1c(C)[nH][nH]c1=O | 18.1 µM

Row | SMILES | AC50
45 | CCOC(=O)CSc1n[nH]c(NC(=O)c2cccc(C(F)(F)F)c2)n1 | > 38 µM (inactive)
46 | Brc1ccc(Cn2c(-c3ccc(Br)o3)nc3ccccc32)o1 | 23.2 µM
47 | N#Cc1ncc(-c2ccc3c(c2)OCCOCCOCCOCCO3)nc1C#N | > 38 µM (inactive)
48 | CCN1C(=O)c2c(C)nc3ccccc3c2C1=O | > 38 µM (inactive)
49 | CCOC(=O)c1cnc(-n2[nH]c(C)c(Cc3ccccc3)c2=O)[nH]c1=O | > 38 µM (inactive)
50 | Cc1ccc(O)c(N=CC2=C(O)c3ccccc3C2=O)c1 | 21.5 µM
51 | Cc1ccc(-c2cc(NC(=O)CCl)n(-c3ccccc3)n2)cc1 | 7.65 µM
52 | CCc1nnc(NC(=O)c2nc(S(=O)(=O)Cc3ccc(C)cc3)ncc2Cl)s1 | > 38 µM (inactive)
53 | Cc1ccccc1N1C(=O)C(Cl)=C(N2CCOCC2)C1=O | > 38 µM (inactive)
54 | Fc1ccc(Nc2nc(NCc3ccco3)c3ccccc3n2)cc1 | 7.39 µM
55 | OC(CNCCC1C=Nc2ccccc21)Cn1c2ccc(Cl)cc2c2cc(Cl)ccc21 (configuration not stated) | 8.48 µM
56 | CC(=O)n1cc(N(C(=O)CCl)c2ccccc2)c2ccccc21 | 3.56 µM
57 | CC1=NNC(=O)C1Cc1c(Cl)cccc1Cl (configuration not stated) | > 38 µM (inactive)
58 | COC(=O)COc1c(Cl)cc(C(c2c(C)[nH][nH]c2=O)c2c(C)[nH][nH]c2=O)cc1OC | 27.8 µM
59 | O=[N+]([O-])/C(C(Cl)=C(Cl)Cl)=C(/Sc1ccccc1)N1CCCCC1 | > 38 µM (inactive)
60 | c1coc(-c2nnc(-c3ccco3)nn2)c1 | 12.8 µM
61 | C#CCOC(=O)c1ccccc1C(=O)n1nnc2ccccc21 | > 38 µM (inactive)
62 | CCCCNC1=CC(=O)C(=O)c2ccccc21 | 7.53 µM
63 | Cc1[nH][nH]c(=O)c1C(c1ccc(F)cc1)c1c(C)[nH][nH]c1=O | 11.9 µM
64 | CC(C)c1[nH]nc2c1C1(CCN(Cc3ccccc3)CC1)C(C#N)=C(N)O2 | > 38 µM (inactive)
65 | O=C(NCCc1ccccc1)C(c1cccs1)N(C(=O)CCl)c1ccc(Cl)cc1 (configuration not stated) | 1.03 µM
66 | O=[N+]([O-])c1ccc(O)c2ncccc12 | 6.6 µM

Row | SMILES | AC50
67 | CC1=NN(c2ccc(S(=O)(=O)O)cc2Cl)C(=O)C1 | 3.66 µM
68 | CC1=NN(c2ccccc2)C(=O)/C1=C/c1cn(C)c2ccccc12 | > 38 µM (inactive)
69 | O=[N+]([O-])C(/C=C(/Cl)[N+](=O)[O-])=C(N1CCCCC1)N1CCCCC1 | > 38 µM (inactive)
70 | CC(=O)Nc1ccc(NC(=O)c2nc(S(=O)(=O)Cc3cccc(C)c3)ncc2Cl)cc1 | > 38 µM (inactive)
71 | CCC(=O)Nc1c(C)nn(C(=O)CC)c1C | > 38 µM (inactive)
72 | COc1cc(/C=C2/C(=O)N(c3ccc(Br)cc3)N=C2C)cc(OC)c1OC | 7.07 µM
73 | COC(=O)C(C#N)C(c1cccnc1)c1c(C)[nH][nH]c1=O (configuration not stated) | > 38 µM (inactive)
74 | Cn1c(SCC(=O)NCc2ccc(F)cc2)nc2ccccc21 | > 38 µM (inactive)
75 | Cc1nn(Cc2ccccc2)c2c1C(c1ccco1)C(C#N)=C(N)O2 (configuration not stated) | > 38 µM (inactive)
76 | COc1ccc(OC)c(C2C(C#N)=C(N)Oc3c2c(C)nn3-c2ccc(C)cc2)c1 (configuration not stated) | 31.1 µM
77 | Cc1ccc(-c2[nH]nc3c2C(C)C(C#N)=C(N)O3)cc1 (configuration not stated) | > 38 µM (inactive)
78 | CCNc1ccccc1CP(=O)(c1ccccc1)c1ccccc1O (configuration not stated) | 22.6 µM
79 | CC(C)OC(=O)CN1C(=O)C(=O)c2ccccc21 | 37.2 µM
80 | CCN(CC)c1ccc2oc(=O)c(C)nc2c1 | 37.2 µM
81 | O=[N+]([O-])c1cc(S(=O)(=O)C(F)(F)F)ccc1Sc1nc2ccccc2[nH]1 | 16 µM
82 | Oc1c(Cl)cc(Cl)c(Cl)c1Cc1c(O)c(Cl)cc(Cl)c1Cl | 6.85 µM
83 | CCOc1cc(C2C(C#N)=C(N)Oc3n[nH]c(CC)c32)ccc1OCCN1CCOCC1 (configuration not stated) | > 38 µM (inactive)
84 | COc1ccc(NC(=O)Nc2ccc(O)c3ccccc23)cc1 | 39.3 µM
85 | Cc1[nH][nH]c(=O)c1C(c1c(C)[nH][nH]c1=O)c1cn(Cc2ccccc2Cl)c2ccccc12 | 1.68 µM
86 | COc1cc2c(cc1OC)-c1c(OC)c(OC)cc3c1C(C2)N(C)CC3 (configuration not stated) | 10.3 µM
87 | CN1CCN(C2=C(Cl)C(=O)N(c3ccc(Cl)cc3)C2=O)CC1 | 3.49 µM
88 | COc1cc(/C=C(\C#N)c2nc3ccccc3o2)ccc1O | > 38 µM (inactive)

Row | SMILES | AC50
89 | O=C1C=C(N2CCOCC2)c2ccccc2C1=O | 4.51 µM
90 | O=C(CCl)N1N=C(c2cccs2)CC1c1ccco1 (configuration not stated) | 5.44 µM
91 | COc1cc(OC)cc(-c2nnc(Sc3ccc(C=O)cc3[N+](=O)[O-])o2)c1 | 21.3 µM
92 | CCOc1ccc2c(c1)-c1c(ssc1=S)C(C)(C)N2 | > 38 µM (inactive)
93 | CC1=NN(c2ccc(C)c(C)c2)C(=O)C1C(c1cccc(O)c1)C1C(=O)N(c2ccc(C)c(C)c2)N=C1C (configuration not stated) | 3.38 µM
94 | O=C(CCl)Nc1cccc(S(=O)(=O)N2CCCCCC2)c1 | > 38 µM (inactive)
95 | CC1=NN(c2nc(-c3ccccc3)cs2)C(=O)C1 | 18.8 µM
96 | Cc1ccc(CNC(=O)c2ccc(N(C)S(=O)(=O)c3ccccc3)cc2)cc1 | > 38 µM (inactive)
97 | Cc1[nH]n(-c2ccccc2)c(=O)c1C(C[N+](=O)[O-])c1ccc(Cl)cc1 (configuration not stated) | 8.62 µM
98 | Nc1ccc(N)c(C(=O)O)c1 | 21 µM
99 | CC1CCc2c(c3ccccc3n2C(=O)CCl)C1 (configuration not stated) | 6.54 µM
100 | CN1c2ccccc2C(C)(C)C12C=Nc1c(ccc3ccccc13)O2 (configuration not stated) | 21.2 µM
101 | CCO/C=C1/C(=O)N(C)C(=O)c2cc(OC)ccc21 | > 38 µM (inactive)
102 | CCOC(=O)C(C(=O)OCC)c1cc(Br)c2noc3c2c1C(=O)c1ccccc1-3 | 8.74 µM
103 | O=C(Nc1ccccc1)Nc1ccc(O)c2ccccc12 | 14.4 µM
104 | CCCCCCCCCCOC(=O)Cn1c(COc2ccc(OC)cc2)[n+](C)c2ccccc21 | 8.31 µM and 8.42 µM
105 | CN1C(=O)C(Cc2ccc3c(c2)OCO3)C(=O)N(C)C1=O | > 38 µM (inactive)
106 | Cc1ccc(SCc2[nH]nc3c2C2(CCSCC2)C(C#N)=C(N)O3)cc1 | 30.4 µM
107 | COc1cc(NC(C)CCCN)c2ncccc2c1 (configuration not stated) | 12.3 µM
